“And” between values parts separate entries of the source, which are not always exact repeats. Identical values can stand only once.
Legend:
Proteasome subunit beta = molecular target: T1, Proteasome subunit beta (Trypanosoma cruzi, UniProt O96673); experiment: Trypanosoma cruzi proteasome chymotrypsin-like activity (TcProtChymo) assay.; format: functional
T1 sequence (O96673 whole entry): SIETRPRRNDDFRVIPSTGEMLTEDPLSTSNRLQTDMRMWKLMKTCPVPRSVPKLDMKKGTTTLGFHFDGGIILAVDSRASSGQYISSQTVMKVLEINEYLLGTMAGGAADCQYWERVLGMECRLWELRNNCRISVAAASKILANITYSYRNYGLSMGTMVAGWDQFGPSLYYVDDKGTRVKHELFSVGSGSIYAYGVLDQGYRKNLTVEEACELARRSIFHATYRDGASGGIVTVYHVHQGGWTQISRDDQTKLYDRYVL

[1] = Trypanosoma cruzi proteasome luciferase counter-screen; format: functional, N/A
[2] = microbe, parasite or virus in culture; details: Mycobacterium tuberculosis, 96 h, read-out: pIC50 (converted)
[3] = microbe, parasite or virus in culture; details: Mycobacterium tuberculosis, 72 h, read-out: pIC50 (converted)
[4] = To identify inhibition of the IFN signalling (Jak-Stat) pathway via expression of an eGFP reporter gene under the control of an IFN-stimulated response element (ISRE) containing MxA promoter.; format: functional, Homo sapiens
Leishmania donovani = experiment: Leishmania intramacrophage assay; format: functional, organism-based; details: for IC50: Leishmania donovani
[5] = In vitro enzyme assay to detect hydrolysis of chlorophenol red-beta-D-[…] directly proportional to the number of Toxoplasma stably expressing beta-galactosidase; format: functional, organism-based, Toxoplasma gondii; details: Toxoplasma gondii
[6] = molecular target: AMP-activated protein kinase, AMPK; experiment: AMP-dependent Kinase enzyme assay. An in vitro enzyme assay that detects ADP turnover that is directly proportional to AMPK activity. This uses naive AMPK that is activated during the assay with MK-8722; format: functional, Homo sapiens
ClpP1P2 = ClpP1P2 (Mycobacterium tuberculosis (strain ATCC 25618 / H37Rv), UniProt P9WPC3+P9WPC5); experiment: in vitro assay to detect presence of AMC directly proportional to the activity of ClpP1P2. GHDDI collaboration.; format: functional
[7] = molecular target: Polyketide synthase Pks13 (Mycobacterium tuberculosis (strain ATCC 25618 / H37Rv), UniProt I6X8D2); experiment: Mycobacterium tuberculosis Polyketide synthase 13 Thioesterase (PKS13); format: functional
Schistosoma mansoni = experiment: High throughput screening of compounds against Schistosoma mansoni motility; format: functional; parameters: dose or concentration left out as unconfirmed
Plasmodium falciparum [8] = experiment: Plasmodium falciparum sporozoite viability assay; format: functional, organism-based
[9] = molecular target: T2, Coenzyme A biosynthesis bifunctional protein CoaBC (Mycobacterium tuberculosis (strain ATCC 25618 / H37Rv), UniProt P9WNZ1); experiment: Biomol Green assay for MtCoaBC inhibitor, OD650 read; format: functional
T2 sequence (P9WNZ1 whole entry): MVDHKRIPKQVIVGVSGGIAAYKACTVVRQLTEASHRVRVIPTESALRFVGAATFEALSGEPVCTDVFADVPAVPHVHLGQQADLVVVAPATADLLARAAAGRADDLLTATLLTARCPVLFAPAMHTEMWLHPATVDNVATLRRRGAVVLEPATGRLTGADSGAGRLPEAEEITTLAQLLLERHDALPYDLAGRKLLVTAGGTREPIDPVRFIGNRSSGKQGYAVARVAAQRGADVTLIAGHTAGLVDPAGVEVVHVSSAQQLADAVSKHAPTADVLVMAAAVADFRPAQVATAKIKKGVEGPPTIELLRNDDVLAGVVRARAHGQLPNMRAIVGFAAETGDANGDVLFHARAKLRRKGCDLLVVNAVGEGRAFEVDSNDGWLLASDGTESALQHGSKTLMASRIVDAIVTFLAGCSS

[10] = molecular target: Chromo domain-containing protein 1 (Saccharomyces cerevisiae (strain ATCC 204508 / S288c) (Baker's yeast), UniProt P32657); experiment: ScCHD-1 Enzyme Inhibition Assay; format: functional
Histidine--tRNA ligase = molecular target: T3, Histidine--tRNA ligase (Leishmania infantum, UniProt A4I591); experiment: Leishmania infantum Histidine tRNA synthetase (LdHisRS); format: functional
T3 sequence (A4I591 whole entry): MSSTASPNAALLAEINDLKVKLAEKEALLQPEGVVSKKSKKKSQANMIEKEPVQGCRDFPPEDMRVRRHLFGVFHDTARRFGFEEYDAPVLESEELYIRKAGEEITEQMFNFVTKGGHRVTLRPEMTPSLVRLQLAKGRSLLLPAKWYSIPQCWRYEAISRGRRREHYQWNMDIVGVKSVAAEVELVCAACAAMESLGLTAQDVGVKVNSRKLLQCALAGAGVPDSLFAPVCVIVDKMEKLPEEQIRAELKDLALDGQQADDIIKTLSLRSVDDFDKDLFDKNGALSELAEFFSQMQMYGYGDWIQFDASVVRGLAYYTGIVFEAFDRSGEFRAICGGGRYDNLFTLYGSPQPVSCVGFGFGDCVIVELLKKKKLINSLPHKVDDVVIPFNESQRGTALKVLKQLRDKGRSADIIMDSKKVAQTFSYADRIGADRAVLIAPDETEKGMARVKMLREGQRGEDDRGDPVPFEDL

Lysine--tRNA ligase = Lysine--tRNA ligase (Plasmodium falciparum (isolate 3D7), UniProt Q8IDJ8); experiment: Pf-KRS-1 (Lysyl-RNA Synthetase-1, KRS-1, cytosolic KRS) from Plasmodium falciparum. Inhibitor assay, 384 well plate, luminescence read.; format: functional
Wolbachia pipientis = experiment: Anti-Wolbachia Cell-Based Screen; format: functional; details: Wolbachia pipientis
Trypanosoma brucei = experiment: Trypanosoma brucei 72 hour study; format: functional, organism-based
Plasmodium falciparum [11] = experiment: Calibr Malaria Delayed Death Assay SOP; format: functional, organism-based

ClpP1P2, sequence (P9WPC5 whole entry): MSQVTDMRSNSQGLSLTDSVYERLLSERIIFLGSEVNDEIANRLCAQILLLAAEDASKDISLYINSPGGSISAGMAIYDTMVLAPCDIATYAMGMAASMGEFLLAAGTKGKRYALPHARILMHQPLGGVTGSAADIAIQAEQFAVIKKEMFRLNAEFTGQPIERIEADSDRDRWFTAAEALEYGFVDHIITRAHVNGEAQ
ClpP1P2, sequence (P9WPC3 whole entry): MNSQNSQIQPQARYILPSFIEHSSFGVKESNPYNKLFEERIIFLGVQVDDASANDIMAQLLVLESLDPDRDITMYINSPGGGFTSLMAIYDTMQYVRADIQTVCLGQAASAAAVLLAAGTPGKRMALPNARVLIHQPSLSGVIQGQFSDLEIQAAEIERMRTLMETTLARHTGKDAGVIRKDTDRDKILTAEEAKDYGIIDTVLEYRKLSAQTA
Polyketide synthase Pks13, sequence (I6X8D2 whole entry): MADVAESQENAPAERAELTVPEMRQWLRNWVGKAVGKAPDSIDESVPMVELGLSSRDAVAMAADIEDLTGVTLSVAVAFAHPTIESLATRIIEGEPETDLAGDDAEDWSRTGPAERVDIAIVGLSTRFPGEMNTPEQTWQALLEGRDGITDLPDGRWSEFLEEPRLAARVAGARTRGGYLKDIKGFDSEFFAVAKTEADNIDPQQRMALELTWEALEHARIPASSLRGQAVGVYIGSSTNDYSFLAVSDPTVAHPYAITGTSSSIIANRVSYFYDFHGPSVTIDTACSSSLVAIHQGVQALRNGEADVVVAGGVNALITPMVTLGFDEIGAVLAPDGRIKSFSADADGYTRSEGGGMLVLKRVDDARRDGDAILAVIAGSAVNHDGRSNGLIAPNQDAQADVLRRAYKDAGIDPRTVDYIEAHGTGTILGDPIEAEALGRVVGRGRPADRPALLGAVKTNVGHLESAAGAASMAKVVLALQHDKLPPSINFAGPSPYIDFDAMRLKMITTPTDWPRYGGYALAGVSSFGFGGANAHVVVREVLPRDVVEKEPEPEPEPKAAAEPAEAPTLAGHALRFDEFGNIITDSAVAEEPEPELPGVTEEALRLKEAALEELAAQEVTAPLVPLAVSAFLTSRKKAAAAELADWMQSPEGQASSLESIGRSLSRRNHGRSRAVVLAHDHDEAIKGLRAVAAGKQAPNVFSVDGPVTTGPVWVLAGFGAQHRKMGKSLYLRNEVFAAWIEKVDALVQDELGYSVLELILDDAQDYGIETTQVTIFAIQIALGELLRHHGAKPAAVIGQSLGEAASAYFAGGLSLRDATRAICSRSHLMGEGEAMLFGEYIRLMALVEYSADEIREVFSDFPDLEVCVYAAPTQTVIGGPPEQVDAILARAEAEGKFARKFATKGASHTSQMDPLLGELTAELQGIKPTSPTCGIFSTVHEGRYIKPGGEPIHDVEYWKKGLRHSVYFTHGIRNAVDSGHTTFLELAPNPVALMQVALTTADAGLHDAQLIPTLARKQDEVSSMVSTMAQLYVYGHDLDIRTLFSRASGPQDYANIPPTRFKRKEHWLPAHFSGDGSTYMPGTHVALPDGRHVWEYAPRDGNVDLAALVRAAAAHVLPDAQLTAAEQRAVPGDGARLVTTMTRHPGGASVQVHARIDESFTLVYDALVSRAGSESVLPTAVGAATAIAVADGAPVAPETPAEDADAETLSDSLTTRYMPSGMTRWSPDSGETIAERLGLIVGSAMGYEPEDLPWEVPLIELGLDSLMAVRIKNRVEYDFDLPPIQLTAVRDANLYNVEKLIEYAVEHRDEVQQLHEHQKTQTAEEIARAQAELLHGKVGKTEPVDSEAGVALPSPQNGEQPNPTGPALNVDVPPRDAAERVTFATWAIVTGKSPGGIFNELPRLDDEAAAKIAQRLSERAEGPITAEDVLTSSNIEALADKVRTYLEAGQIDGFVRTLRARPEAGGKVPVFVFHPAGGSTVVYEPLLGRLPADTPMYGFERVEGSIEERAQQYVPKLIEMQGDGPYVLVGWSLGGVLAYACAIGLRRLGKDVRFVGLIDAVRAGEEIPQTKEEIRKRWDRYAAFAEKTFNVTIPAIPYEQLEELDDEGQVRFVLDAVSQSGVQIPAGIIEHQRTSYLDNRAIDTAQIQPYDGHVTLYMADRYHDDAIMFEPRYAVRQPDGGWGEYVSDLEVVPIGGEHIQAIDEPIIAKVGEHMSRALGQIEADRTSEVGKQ
Chromo domain-containing protein 1, sequence (P32657 whole entry, the tested form may be a part): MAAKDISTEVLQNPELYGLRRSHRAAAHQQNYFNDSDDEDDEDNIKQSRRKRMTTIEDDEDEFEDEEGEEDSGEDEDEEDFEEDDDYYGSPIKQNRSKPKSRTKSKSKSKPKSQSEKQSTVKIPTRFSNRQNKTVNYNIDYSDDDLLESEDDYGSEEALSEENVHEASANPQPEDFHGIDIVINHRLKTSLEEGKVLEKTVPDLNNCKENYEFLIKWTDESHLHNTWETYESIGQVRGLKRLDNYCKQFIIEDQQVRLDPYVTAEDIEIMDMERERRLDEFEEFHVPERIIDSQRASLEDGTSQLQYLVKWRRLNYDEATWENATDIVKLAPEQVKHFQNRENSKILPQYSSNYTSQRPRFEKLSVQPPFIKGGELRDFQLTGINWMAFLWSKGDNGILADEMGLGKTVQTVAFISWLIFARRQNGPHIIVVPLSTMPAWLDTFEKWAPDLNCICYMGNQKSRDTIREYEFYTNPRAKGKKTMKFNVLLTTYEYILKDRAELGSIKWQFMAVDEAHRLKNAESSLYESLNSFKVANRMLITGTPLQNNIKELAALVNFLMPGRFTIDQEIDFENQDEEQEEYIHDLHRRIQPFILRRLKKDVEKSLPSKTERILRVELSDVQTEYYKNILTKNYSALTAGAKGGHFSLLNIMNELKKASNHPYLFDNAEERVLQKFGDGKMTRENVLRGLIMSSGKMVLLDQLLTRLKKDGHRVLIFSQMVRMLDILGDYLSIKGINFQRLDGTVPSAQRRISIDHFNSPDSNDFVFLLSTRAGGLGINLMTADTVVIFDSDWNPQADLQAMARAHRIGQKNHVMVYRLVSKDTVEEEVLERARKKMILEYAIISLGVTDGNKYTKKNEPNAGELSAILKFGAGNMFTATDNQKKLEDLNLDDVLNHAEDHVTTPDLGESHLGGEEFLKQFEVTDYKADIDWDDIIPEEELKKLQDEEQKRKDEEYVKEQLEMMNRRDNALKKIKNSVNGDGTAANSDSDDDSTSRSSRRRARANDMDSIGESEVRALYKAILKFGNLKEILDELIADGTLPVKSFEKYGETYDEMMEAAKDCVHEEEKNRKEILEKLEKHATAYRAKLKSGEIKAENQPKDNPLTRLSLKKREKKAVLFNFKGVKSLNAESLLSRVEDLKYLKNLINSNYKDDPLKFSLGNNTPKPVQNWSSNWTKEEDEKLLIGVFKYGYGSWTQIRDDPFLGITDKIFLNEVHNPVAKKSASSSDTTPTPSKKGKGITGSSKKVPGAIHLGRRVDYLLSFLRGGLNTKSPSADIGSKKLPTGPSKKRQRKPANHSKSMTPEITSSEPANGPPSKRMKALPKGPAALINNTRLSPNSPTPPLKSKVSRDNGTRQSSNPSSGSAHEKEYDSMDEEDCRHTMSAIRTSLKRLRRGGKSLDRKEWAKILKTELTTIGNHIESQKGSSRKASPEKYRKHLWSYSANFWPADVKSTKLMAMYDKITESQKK
Lysine--tRNA ligase, sequence (Q8IDJ8 whole entry): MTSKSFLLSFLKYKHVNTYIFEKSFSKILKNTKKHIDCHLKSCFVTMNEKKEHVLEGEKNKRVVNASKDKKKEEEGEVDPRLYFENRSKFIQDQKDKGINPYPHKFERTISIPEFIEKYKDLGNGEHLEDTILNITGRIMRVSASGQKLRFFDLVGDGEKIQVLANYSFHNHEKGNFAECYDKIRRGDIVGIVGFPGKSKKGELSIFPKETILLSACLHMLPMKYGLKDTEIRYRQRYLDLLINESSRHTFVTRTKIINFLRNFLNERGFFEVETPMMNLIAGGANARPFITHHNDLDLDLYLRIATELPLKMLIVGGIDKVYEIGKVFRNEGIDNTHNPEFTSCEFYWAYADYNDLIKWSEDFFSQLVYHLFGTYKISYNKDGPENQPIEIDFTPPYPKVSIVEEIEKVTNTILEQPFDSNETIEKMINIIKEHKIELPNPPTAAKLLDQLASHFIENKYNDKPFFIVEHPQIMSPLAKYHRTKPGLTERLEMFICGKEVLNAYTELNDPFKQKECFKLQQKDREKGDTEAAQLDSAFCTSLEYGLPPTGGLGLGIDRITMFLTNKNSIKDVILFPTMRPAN

Compound	IC50 (Proteasome subunit beta)	pIC50 [1]	also measured
O=C(NCCCN1CCOCC1)c1ccn(-c2ccc3ccccn23)n1.O=C(O)C(F)(F)F	> 100 µM	< 4	
Cc1ccc(C(=O)Nc2cn[nH]c2)cc1C	13.3 µM and 12.6 µM	4.136 and 4.208	
COc1cccc(-c2noc(C3CCN(Cc4cccs4)C3)n2)c1.Cl (configuration not stated)	13.9 µM and 12.6 µM	4.852 and 4.875	
COc1cccc(-c2nc(CNCCn3cccn3)cs2)c1	13.4 µM and 11.8 µM	4.359 and 4.346	
Cc1cnn(CC2CN(c3cnc4ccccc4n3)CCO2)c1 (configuration not stated)	17.8 µM and 19.4 µM	4.14 and 4.151	IC50 [2]: 14.4 µM; IC50 [3]: 16.4 µM
COc1ccccc1CNC(=O)C1=NN(c2ccc(C)cc2)C(=O)CN1			pIC50 [4]: 4.606 and 4.808; pIC50 (Leishmania donovani): < 4.3 and 4.742; IC50 [5]: 10.8 µM
CC(C)n1ccc(-c2cc(C(=O)N3CCCC3)c3ccccn23)n1			pIC50 [6]: < 4; pIC50 [4]: < 4.21
Cn1cccc1C(=O)N1CCC2(CC1)CN(c1cncnc1)C(=O)CO2	> 100 µM	< 4	
CC(C)=CCN1C[C@H]2CC[C@@H]1CN(C(=O)c1c[nH]c(=O)c(Cl)c1)C2	> 100 µM	< 4	
Cc1nc(CN2CCOC(CNc3cccnn3)C2)oc1C (configuration not stated)	> 100 µM	< 4	
Cc1cnn(CC2CCCN2CC(=O)N(C)Cc2ccc(C)o2)c1 (configuration not stated)	> 100 µM	< 4	
CCc1nnc2n1CCN(Cc1csc(-c3ccc(C)o3)n1)C2	> 100 µM	< 4	
COCCN1CCc2cc(C(=O)NCC3CC3)c(NC(C)C)nc2CC1.O=C(O)C(F)(F)F.O=C(O)C(F)(F)F			IC50 (ClpP1P2): > 100 µM; pIC50 [4]: 5.014 and 5.099; IC50 [7]: 18.4 µM and 14.5 µM
CC(C1CC1)N(C)C(=O)c1cnc(-c2ccc3c(c2)OCO3)s1 (configuration not stated)	13.7 µM and 13.1 µM	4.375 and 4.324	Percent Effect (Schistosoma mansoni): 12.48%
COCc1noc(-c2ccc(N3CCCCC3CO)nc2)n1 (configuration not stated)	8.74 µM and 8.62 µM	4.522 and 4.491	pIC50 (Plasmodium falciparum [8]): 7.545; IC50 (Plasmodium falciparum [8]; Plasmodium falciparum): 0.0293 µM
CNC(=O)c1cnc(/C=C/c2ccc(OC)c(O)c2)s1	17.4 µM and 13.8 µM	4.132 and < 4	
O=C(CC1CN(Cc2ccccc2)CCO1)Nc1ccccc1F (configuration not stated)	12.6 µM and 13.6 µM	4.434 and 4.445	
O=C(c1cn(-c2ccccc2Cl)nn1)N1CCCSCC1	14.2 µM and 16.4 µM	4.282 and 4.315	
Cc1cc(S(=O)(=O)Nc2cccc(-n3cccc3)c2)sc1C(=O)O	16.4 µM and 18.9 µM	< 4	IC50 [7]: 2.38 µM and 0.803 µM; IC50 [9]: > 30.2 µM
CCOc1cc(/C=C/c2ncc(C(=O)O)s2)ccc1O	15.5 µM and 21.9 µM	4.099 and 4.094	
COc1cccc(C(=O)NCC(O)c2cccs2)c1 (configuration not stated)	16.9 µM and 18.4 µM	4.037 and < 4	Percent Effect (Schistosoma mansoni): -12.61%
CC1CN(CC2CCCCC2)CCN1c1ccc2nncn2n1 (configuration not stated)			IC50 (ClpP1P2): > 100 µM; pIC50 [4]: 4.49 and 4.459; IC50 [10]: > 29.5 µM
c1ccc2sc(N3CCOC(Cn4cccn4)C3)nc2c1 (configuration not stated)	18 µM and 17.7 µM	4.135 and 4.203	
CCOCCCn1c(NC(=O)c2scnc2C)nc2ccccc21			pIC50 [4]: 4.523 and 4.463; IC50 [10]: > 29.5 µM
Cl.c1ccc(-c2ccc(C3CNCCO3)nc2)cc1 (configuration not stated)	13.7 µM and 13 µM	4.18 and 4.164	
Cc1ccc(NCc2cncc3c2CCN(C(=O)C2CC=CC2)C3)nn1.Cl	> 100 µM	< 4	
Cc1ccc(N2CC[C@H]3O[C@@H](C(=O)NCc4ccco4)CC[C@H]32)nn1.O=C(O)C(F)(F)F	> 100 µM	< 4	

Compound	IC50 (Proteasome subunit beta)	pIC50 [1]	also measured
Cc1cnn(C2CN(CC(=O)NCc3ccccn3)C2)c1	14.9 µM and 19.7 µM	< 4	IC50 (Histidine--tRNA ligase): > 100 µM; IC50 [9]: > 30.2 µM
Cc1cc(N2CCN(CC(=O)N(C)C)CC2)nc(-c2ccncc2)n1	> 100 µM	< 4	IC50 (Histidine--tRNA ligase): > 100 µM
CCOc1ccc(S(=O)(=O)NCc2cccnc2N(C)C)cc1			IC50 (Lysine--tRNA ligase): > 50.1 µM; pIC50 [4]: 5.549 and 5.242; IC50 (Leishmania donovani): > 50.1 µM
CN(C(=O)Cc1ccc(NC(=O)NC2CCC2)cc1)c1ccccc1	> 100 µM	< 4	
NC(=O)c1nc(COc2ccc3c(c2)OCO3)no1	8.85 µM and 10.5 µM	< 4	
CCc1nc(CN2CCCN(C(=O)CCc3ccco3)CC2)cs1	> 100 µM	< 4	
COc1cccc(-c2nc(C)c(C(=O)NC(CO)CCSC)s2)c1 (configuration not stated)	27.3 µM and 32.3 µM	4.212	
CN(C)c1cc(CNC(=O)Nc2ccc(F)cc2)ccn1	14.4 µM and 16.9 µM	4.234 and 4.227	
Cc1ccc(N(C)C2CCN(C(=O)CCc3ccco3)CC2)nn1	12.8 µM and 16.7 µM	< 4	IC50 (Histidine--tRNA ligase): 41.4 µM and 49.7 µM; IC50 [9]: > 30.2 µM
Cc1cc(C(=O)N2CCc3nnc(N)cc3C2)c(C)n1-c1cccnc1	> 100 µM	< 4	
COc1c(CNC2CCSc3ccc(F)cc32)c(C)nn1C.Cl (configuration not stated)			IC50 (Wolbachia pipientis): > 10 µM; pIC50 [4]: 4.845 and 5.142
Cc1nc(CN2CCCC(N(C)Cc3cscn3)C2)no1 (configuration not stated)	34.8 µM and 26.4 µM	< 4	
O=C(Nc1ccc(F)c(Br)c1)N1CCCC1	11.4 µM and 11.2 µM	< 4	
Cc1ccc(-c2cc(C(=O)NC(C)C(=O)N3CCCCC3)on2)cc1 (configuration not stated)	26.1 µM and 26.7 µM	4.246 and 4.264	
O=C(c1ccc(C2CCCO2)s1)N1Cc2ccccc2C1 (configuration not stated)	16.1 µM and 11.4 µM	4.241 and < 4	
CO[C@@H]1CN(Cc2scnc2C)[C@@H]2CCCO[C@@H]21.O=C(O)C(F)(F)F.O=C(O)C(F)(F)F	8.6 µM and 10.8 µM	< 4	IC50 (ClpP1P2): > 100 µM
N#Cc1c(F)cccc1N1CCN(S(=O)(=O)c2cccs2)CC1			pIC50 [4]: 4.537 and 4.564; Percent Effect (Schistosoma mansoni): 35.72%; IC50 [10]: > 29.5 µM
Cc1ccc(-c2nc(CN3CCC(C(=O)N(C)C)CC3)cs2)o1	46.3 µM and 43.1 µM	< 4	
CCc1nc(COc2ccc(OCc3cnn(C)c3)cc2)no1	12.3 µM and 13.3 µM	4.267 and 4.334	
COCC1CCCN(C(=O)c2cc(Cn3ccc4ccccc43)[nH]n2)C1 (configuration not stated)			pIC50 [4]: < 4.21; IC50 [10]: > 29.5 µM and 18.8 µM
Cc1nc[nH]c1CN(C)CC1CCCN(CCc2ccc(Cl)cc2)C1 (configuration not stated)			pIC50 [4]: 4.612 and 4.41; pIC50 (Leishmania donovani): 5.148; IC50 (Leishmania donovani): 8.56 µM; Percent Effect (Schistosoma mansoni): 102.7%; pIC50 (Trypanosoma brucei): 5.168 and 5.164; IC50 (Trypanosoma brucei; Trypanosoma brucei, 72 h): 6.79 µM; pIC50 (Plasmodium falciparum [11]): 6.162; IC50 (Plasmodium falciparum [11]; Plasmodium falciparum): 0.565 µM
Cc1cc(C(C)C(=O)N2CCCN(Cc3cscn3)CC2)c(C)o1 (configuration not stated)	> 100 µM	< 4	
CNS(=O)(=O)Cc1ccc(CNc2cncc(-n3cccn3)n2)cc1	10.5 µM and 10.6 µM	4.398 and 4.427	IC50 (ClpP1P2): > 100 µM
CC(C)c1cc2c(O)nc(CSCC(=O)O)nc2s1	7.28 µM and 8.24 µM	4.494 and 4.54	
CCCC(NC(=O)c1cc(C)n(C2CC2)c1C)c1nnn[nH]1 (configuration not stated)	55.7 µM and 67.9 µM	< 4	
Cc1cc(C(=O)N2CCC3(CCCN(CC4CC4)C3=O)C2)c(C)n1C (configuration not stated)	> 100 µM and 85.7 µM	< 4	

From ChEMBL document CHEMBL3988442, “University of Dundee, Small-Polar-MMV Screening Library” (2021)
